Laboratory results reported in patent publication US20220288026A1, “METHODS OF TREATING KIDNEY DISEASES” (priority 2019, published 2022).
Entries after “also recorded” stand apart in the source; their conditions may differ. Like-named read-outs stand apart in the source and are kept apart here.

Experiments:
g-ddY mice = experiment: UACR (albuminuria) in g-ddY mouse model of IgA nephropathy; type: in vivo
Excerpt: The grouped ddY (g-ddY) mouse is a spontaneous model of early-onset IgA nephropathy characterized by IgA immune complex deposition in the mesangium of the kidney, leading to significant proteinuria, glomerular hypercellularity, mesangioproliferative glomerular lesions, glomerular sclerosis and reduced kidney function, all hallmarks of human IgA nephropathy (J Am Soc Nephrol 23: 1364-1374, 2012). Consistent with human IgA nephropathy, the mesangial IgA deposits in the g-ddY mouse are also accompanied by deposition of IgG and complement C3.

[1] = system: kidney tissue of g-ddY mice; experiment: Ingenuity Pathway Analysis (IPA) canonical pathways, g-ddY kidney RNA-seq; type: in vivo, mouse; conditions: 30 mg/kg/day
Procedure: (§1) RNA isolation and sequencing libraries were generated using standard protocols. Sequencing was performed using an Illumina NextSeq500 using manufacturer's instructions with a read length of 75 bp and a read depth of 30 million. Raw data was assembled to FASTQ files. Following QC analysis, high quality sequencing reads (e.g., reads with a Phred quality score >36) were aligned to the mouse reference genome (GRCm38-mm10) using the default parameters of the align algorithm and transcript count tables of each library was generated using the default parameters of the featureCounts algorithm of the RSubread package (Liao Y, Smyth G K, Shi W, 2019). High quality sequencing reads mapped to 27,129 genes. Following additional QC of low count filtering (i.e. transcripts <10 counts across all samples), 16,207 genes were identified and used for further analysis. The remaining sequencing read counts of the included 16,207 genes were normalized to library size, log-transformed, and were quantified as counts per million (CPM). Select RNA-seq counts were validated using qPCR.

[2] = system: kidney tissue of g-ddY mice; experiment: IPA upstream regulator analysis, g-ddY kidney RNA-seq; type: in vivo, mouse; conditions: 30 mg/kg/day
[3] = system: primary human renal mesangial cells (HRMCs); experiment: Proliferation (BrdU) of HRMCs stimulated with IgA-containing immune complexes; type: cell-based
Excerpt: Primary human mesangial cells in a culture were stimulated with pathogenic galactose deficient (Gd)-IgA containing immune complexes isolated from human IgA nephropathy patients.
Specifically, pathogenic IgA-containing immune complexes were isolated from serum from either IgA nephropathy patients or age, gender and ethnicity-matched healthy individuals. Frozen serum was purchased from BioIVT and IgA-containing immune complexes were purified using jacalin affinity chromatography. […] Purified IgA-containing immune complexes were concentrated using a 100K Amicon filtration unit and the amount of total IgA and galactose-deficient IgA (Gd-IgA) in the immune complexes was measured by ELISA (ThermoFisher and IBL America, respectively). […] See, e.g., Novak et. al., Kidney International, 67, pp. 504-516; 2005; Novak et. al., Nephrol. Dial. Transplant, 26, pp. 3451-3457; 2011; Liang et. al., Cell Physiol. Biochem., 36, pp. 1793-1808; 2015; Nguyen et. al., Clin. Kidney J., 12 (2), pp, 232-238; 2019.

[4] = system: kidney tissue of g-ddY mice; experiment: Gene Set Enrichment Analysis (GSEA) hallmark gene sets, g-ddY kidney RNA-seq; type: in vivo, mouse
Procedure: as §1

[5] = system: kidney tissue of g-ddY mice
[6] = system: patients with diabetic kidney disease (DKD); conditions: cited from earlier work
[7] = 10 mg/kg/day vs untreated control
[8] = 20 mg/kg/day vs untreated control
[9] = 30 mg/kg/day vs untreated control

## CCCCN(CCCC)C(=O)CN1C[C@H](c2ccc3c(c2)OCO3)[C@@H](C(=O)O)[C@@H]1c1ccc(OC)cc1 [atrasentan, (2R,3R,4S)-4-(1,3-benzodioxol-5-yl)-1-[2-(dibutylamino)-2-oxoethyl]-2-(4-methoxyphenyl)pyrrolidine-3-carboxylic acid]
g-ddY mice; 10 mg/kg/day
  UACR reduction compared to control group (un-paired t-test): not significant
g-ddY mice; 10 mg/kg/day group
  mice with reduced albuminuria/proteinuria: ⅔
g-ddY mice; 10 mg/kg/day, approximately 5 days
  albuminuria compared to baseline (paired t-test): not significantly changed from baseline
g-ddY mice; 20 mg/kg/day, P=0.0498
  UACR reduction compared to control group (un-paired t-test): statistically significant compared to the control group
g-ddY mice; 20 mg/kg/day, approximately 5 days, P=0.0593
  albuminuria compared to baseline (paired t-test): reduced from baseline to a similar extent
g-ddY mice; 30 mg/kg/day, P=0.029
  UACR reduction compared to control group (un-paired t-test): statistically significant compared to the control group
g-ddY mice; 30 mg/kg/day, approximately 5 days, P=0.0002
  albuminuria compared to baseline (paired t-test): reduced albuminuria from baseline
g-ddY mice; 20 and 30 mg/kg/day, approximately 5 days
  albuminuria reduction from baseline: > 60%
[1]
  IPA: effect on signaling pathways: reduced NF-κB signaling, IL-6 pathway signaling (e.g., STAT3), and PDGF signaling
  NF-κB signaling: reduced NF-κB signaling
  PDGF signaling: reduced PDGF signaling
[2]
  Predicted Activation State 26s Proteasome: Inhibited
  Predicted Activation State ADGRF5: Activated
  Predicted Activation State AGT: Inhibited
  Predicted Activation State BMP2: Inhibited
  Predicted Activation State CCL5: Inhibited
  Predicted Activation State CCN5: Activated
  Predicted Activation State CCR2: Inhibited
  Predicted Activation State CD40LG: Inhibited
  Predicted Activation State CG: Inhibited
  Predicted Activation State CHRM3: Inhibited
  Predicted Activation State CSF2: Inhibited
  Predicted Activation State CSF3: Inhibited
  Predicted Activation State CXCL12: Inhibited
  Predicted Activation State DKK1: Activated
  Predicted Activation State EDN1: Inhibited
  Predicted Activation State EDNRA: Inhibited
  Predicted Activation State EGF: Inhibited
  Predicted Activation State F2R: Inhibited
  Predicted Activation State F3: Inhibited
  Predicted Activation State FAS: Activated
  Predicted Activation State FCGR1A: Inhibited
  Predicted Activation State FGF2: Inhibited
  Predicted Activation State FGF23: Inhibited
  Predicted Activation State GDF2: Inhibited
  Predicted Activation State GPER1: Inhibited
  Predicted Activation State HGF: Inhibited
  Predicted Activation State HTR7: Inhibited
  Predicted Activation State IFNA2: Inhibited
  Predicted Activation State IFNAR1: Inhibited
  Predicted Activation State IFNG: Inhibited
  Predicted Activation State IGF1: Inhibited
  Predicted Activation State IGF1R: Activated
  Predicted Activation State IL1A: Inhibited
  Predicted Activation State IL1B: Inhibited
  Predicted Activation State IL2: Inhibited
  Predicted Activation State IL3: Inhibited
  Predicted Activation State IL6: Inhibited
  Predicted Activation State IL6R: Inhibited
  Predicted Activation State IL10: Inhibited
  Predicted Activation State IL21: Inhibited
  Predicted Activation State IL33: Inhibited
  Predicted Activation State ILR4: Inhibited
  Predicted Activation State Ifn gamma: Inhibited
  Predicted Activation State Ige: Inhibited
  Predicted Activation State LDL: Inhibited
  Predicted Activation State LGR5: Activated
  Predicted Activation State Laminin (complex): Activated
  Predicted Activation State NFkB (complex): Inhibited
  Predicted Activation State NRG1: Inhibited
  Predicted Activation State OSM: Inhibited
  Predicted Activation State PDGF BB: Inhibited
  Predicted Activation State PDGFB: Inhibited
  Predicted Activation State PF4: Inhibited
  Predicted Activation State PI3K (complex): Inhibited
  Predicted Activation State PLA2R1: Activated
  Predicted Activation State PRL: Inhibited
  Predicted Activation State PROKR1: Activated
  Predicted Activation State PTGER4: Activated
  Predicted Activation State Pdgf (complex): Inhibited
  Predicted Activation State SMO: Activated
  Predicted Activation State TCR: Inhibited
  Predicted Activation State TGFB1: Inhibited
  Predicted Activation State TGFB2: Inhibited
  Predicted Activation State TGFB3: Inhibited
  Predicted Activation State TLR3: Inhibited
  Predicted Activation State TLR9: Inhibited
  Predicted Activation State TNF: Inhibited
  Predicted Activation State TNFRSF1A: Inhibited
  Predicted Activation State TNFSF11: Inhibited
  Predicted Activation State TNFSF12: Inhibited
  Predicted Activation State TREM1: Inhibited
  Predicted Activation State TSLP: Inhibited
  Predicted Activation State TYROBP: Inhibited
  Predicted Activation State VEGFA: Inhibited
  Predicted Activation State VEGFB: Activated
  Predicted Activation State WNT3A: Inhibited
[3]; IgA containing serum fractions from healthy controls
  basal cell proliferation of HRMCs: no effect on basal cell proliferation
[3]; immune complexes from three patients with IgA nephropathy
  hyperproliferation of HRMCs induced by IgA containing immune complexes: reduces the proliferation; also recorded: significantly attenuated the hyperproliferation
[4]; 10 mg/kg/day vs. control
  NES HALLMARK_REACTIVE_OXYGEN_SPECIES_PATHWAY: 1.59
[4]; 20 mg/kg/day vs. control
  NES HALLMARK_REACTIVE_OXYGEN_SPECIES_PATHWAY: 1.61
[4]; 30 mg/kg/day
  IL-6 signaling: reduced IL-6 signaling
  cell proliferation associated signaling (mitotic spindle and G2M checkpoint): reduced cell proliferation associated signaling
  inflammatory response signaling: reduced inflammatory response signaling
[4]; 30 mg/kg/day vs. control
  NES HALLMARK_REACTIVE_OXYGEN_SPECIES_PATHWAY: 1.98
[4]; 10, 20, and 30 mg/kg/day
  GSEA: TNFα signaling via NF-κB, epithelial mesenchymal transition, inflammatory response, IL6-JAK-STAT3 signaling, mitotic spindle, G2M checkpoint: concordant negative enrichment
[5]; [7]
  ET1 gene signature genes downregulated: Grk5, Mllt3, Klf2, Pparg, Hgf, Edn1, Fos, Ptgs2, and IL-1b were downregulated
  ET1 gene signature genes upregulated: Ccnd1, Ppara, Agt, Map2k2 and Hoxa9 were upregulated
[5]; [8]
  ET1 gene signature genes downregulated: Nfatc1, Grk5, Klf2, Cav1, Pparg, Itga5, Myc, Ednra, Sell, Hgf, Mmp2, Edn1, Syk, Fos, and IL-1b were downregulated
  ET1 gene signature genes upregulated: Ccdn1, Cat, Ppara, Map2k2, Hoxa9, Agt, and Egfr were upregulated
[5]; [9]
  ET1 gene signature genes downregulated: downregulated genes Ednrb, Myc, Mllt3, Hdac7, Ednra, Itga5, Grk5, Pparg, Klf2, Hgf, Mmp2, Sell, Sphk1, Fos, Syk, Edn1, and IL-1b
  ET1 gene signature genes upregulated: upregulated genes Ccnd1, Agt, Cat, Map2k2, Hoxa9, and Ppara
[5]; 10, 20, and 30 mg/kg/day
  ET1 (Edn1) gene expression: downregulated across all three doses
[6]
  risk of renal events (doubling of serum creatinine or end-stage kidney disease): significantly reducing the risk of renal events
